According to patent US20080214845A1, “ANTIBACTERIAL 6'-MODIFIED 4,5-SUBSTITUTED AMINOGLYCOSIDE ANALOGS” (priority 2005, published 2008):
Converted amounts (≈) assume the structure as drawn.

What was measured:
S. Aureus = assay: Minimum inhibitory concentration (MIC), S. aureus; format: cell-based; settings: range of concentration, 20-24 hours at 37° C., A595; for MIC: Staphylococcus aureus
Procedure: (§1) The assays are carried out in 150 μL volume in duplicate in 96-well clear flat-bottom plates. The bacterial suspension from an overnight culture growth in appropriate medium is added to a solution of test compound in 2.5% DMSO in water. Final bacterial inoculum is approximately 10^2-10^3 CFU/well. The percentage growth of the bacteria in test wells relative to that observed for a control wells containing no compound is determined by measuring absorbance at 595 nm (A595) after 20-24 hours at 37° C. The MIC is determined as a range of concentration where complete inhibition of growth is observed at the higher concentration and bacterial cells are viable at the lower concentration. Both ampicillin and tetracycline are used as antibiotic positive controls in each screening assay.

E. Coli. = assay: Minimum inhibitory concentration (MIC), E. coli; format: cell-based; settings: range of concentration, 20-24 hours at 37° C., A595; for MIC: Escherichia coli
Procedure: as §1

| Structure (SMILES) | MIC S. Aureus (S. Aureus) [µM] | MIC E. Coli. (E. Coli.) [µM] | MIC (S. Aureus) [µM] | MIC (E. Coli.) [µM] |
| --- | --- | --- | --- | --- |
| Cc1ccc(CCNC[C@H]2O[C@H](O[C@H]3[C@H](O[C@@H]4O[C@H](CO)[C@@H](O[C@H]5O[C@@H](CN)[C@@H](O)[C@H](O)[C@H]5N)[C@H]4O)[C@@H](O)[C@H](N)C[C@@H]3N)[C@H](N)[C@@H](O)[C@@H]2O)cc1 [IBIS00561930] | 0.6 to 1.2 | 2.5 to 5.0 | – | – |
| CN(CCc1ccccc1)C[C@H]1O[C@H](O[C@H]2[C@H](O[C@@H]3O[C@H](CO)[C@@H](O[C@H]4O[C@@H](CN)[C@@H](O)[C@H](O)[C@H]4N)[C@H]3O)[C@@H](O)[C@H](N)C[C@@H]2N)[C@H](N)[C@@H](O)[C@@H]1O [IBIS00561931] | 0.31 to 0.62 | 2.5 to 5.0 | – | – |
| NC[C@@H]1O[C@H](O[C@H]2[C@@H](O)[C@H](O[C@@H]3[C@@H](O)[C@H](N)C[C@H](N)[C@H]3O[C@H]3O[C@H](CNCCCc4ccccc4)[C@@H](O)[C@H](O)[C@H]3N)O[C@@H]2CO)[C@H](N)[C@@H](O)[C@@H]1O [IBIS00561932] | 0.31 to 0.62 | 0.6 to 1.2 | – | – |
| COc1ccc(CCNC[C@H]2O[C@H](O[C@H]3[C@H](O[C@@H]4O[C@H](CO)[C@@H](O[C@H]5O[C@@H](CN)[C@@H](O)[C@H](O)[C@H]5N)[C@H]4O)[C@@H](O)[C@H](N)C[C@@H]3N)[C@H](N)[C@@H](O)[C@@H]2O)cc1 [IBIS00561933] | – | – | 0.31 to 0.62 (≈ 0.232 to 0.464 µg/mL) | 1.25 to 2.5 (≈ 0.936 to 1.87 µg/mL) |
| COc1cccc(CCNC[C@H]2O[C@H](O[C@H]3[C@H](O[C@@H]4O[C@H](CO)[C@@H](O[C@H]5O[C@@H](CN)[C@@H](O)[C@H](O)[C@H]5N)[C@H]4O)[C@@H](O)[C@H](N)C[C@@H]3N)[C@H](N)[C@@H](O)[C@@H]2O)c1 [IBIS00561934] | 0.31 to 0.62 | 1.25 to 2.5 | – | – |
| COc1ccccc1CCNC[C@H]1O[C@H](O[C@H]2[C@H](O[C@@H]3O[C@H](CO)[C@@H](O[C@H]4O[C@@H](CN)[C@@H](O)[C@H](O)[C@H]4N)[C@H]3O)[C@@H](O)[C@H](N)C[C@@H]2N)[C@H](N)[C@@H](O)[C@@H]1O [IBIS00561935] | 0.31 to 0.62 | 1.25 to 2.5 | – | – |
| NCC1OC(OC2C(CO)OC(OC3C(O)C(N)CC(N)C3OC3OC(CNCC(O)c4ccccc4)C(O)C(O)C3N)C2O)C(N)C(O)C1O (stereo not drawn) [IBIS00561937] | 0.6 to 1.2 | 5.0 to 10.0 | – | – |
| NC[C@@H]1O[C@H](O[C@H]2[C@@H](O)[C@H](O[C@@H]3[C@@H](O)[C@H](N)C[C@H](N)[C@H]3O[C@H]3O[C@H](CN4CCC5CCCCC54)[C@@H](O)[C@H](O)[C@H]3N)O[C@@H]2CO)[C@H](N)[C@@H](O)[C@@H]1O (stereo partly drawn) [IBIS00561939] | – | – | 0.31 to 0.62 (≈ 0.224 to 0.448 µg/mL) | 1.25 to 2.5 (≈ 0.904 to 1.81 µg/mL) |
| NCC1OC(OC2C(CO)OC(OC3C(O)C(N)CC(N)C3OC3OC(CNCCc4c[nH]c5ccccc45)C(O)C(O)C3N)C2O)C(N)C(O)C1O (stereo not drawn) [IBIS00561940] | 1.25 to 2.5 | 1.25 to 2.5 | – | – |
| NC[C@@H]1O[C@H](O[C@H]2[C@@H](O)[C@H](O[C@@H]3[C@@H](O)[C@H](N)C[C@H](N)[C@H]3O[C@H]3O[C@H](CNCCc4ccc(C(F)(F)F)cc4)[C@@H](O)[C@H](O)[C@H]3N)O[C@@H]2CO)[C@H](N)[C@@H](O)[C@@H]1O [IBIS00561942] | 0.31 to 0.62 | 1.25 to 2.5 | – | – |
| NC[C@@H]1O[C@H](O[C@H]2[C@@H](O)[C@H](O[C@@H]3[C@@H](O)[C@H](N)C[C@H](N)[C@H]3O[C@H]3O[C@H](CNCCc4cccc(C(F)(F)F)c4)[C@@H](O)[C@H](O)[C@H]3N)O[C@@H]2CO)[C@H](N)[C@@H](O)[C@@H]1O [IBIS00561943] | – | – | 0.16 to 0.31 (≈ 0.126 to 0.244 µg/mL) | 0.6 to 1.2 (≈ 0.472 to 0.944 µg/mL) |
| NC[C@@H]1O[C@H](O[C@H]2[C@@H](O)[C@H](O[C@@H]3[C@@H](O)[C@H](N)C[C@H](N)[C@H]3O[C@H]3O[C@H](CNCCc4ccc(F)cc4)[C@@H](O)[C@H](O)[C@H]3N)O[C@@H]2CO)[C@H](N)[C@@H](O)[C@@H]1O [IBIS00561944] | 0.16 to 0.31 | 0.6 to 1.2 | – | – |
